Results published in patent publication US11319306B2, “Compositions and methods for treating neurodegenerative diseases” (Azevan Pharmaceuticals, Inc., priority 2014, dated 2022).
Read-outs that look alike come from different tables or passages of the source.

Experiments:
human V1a receptor [1] = target: T1, human V1a receptor (Homo sapiens, UniProt P37288); assay: Inhibition of phosphatidylinositol turnover (V1a); assay type: cell-based; settings: inhibition of vasopressin-mediated phosphatidylinositol turnover
T1 construct: host or cells: CHO cells (hV1a cell line)
T1 sequence (P37288 whole entry): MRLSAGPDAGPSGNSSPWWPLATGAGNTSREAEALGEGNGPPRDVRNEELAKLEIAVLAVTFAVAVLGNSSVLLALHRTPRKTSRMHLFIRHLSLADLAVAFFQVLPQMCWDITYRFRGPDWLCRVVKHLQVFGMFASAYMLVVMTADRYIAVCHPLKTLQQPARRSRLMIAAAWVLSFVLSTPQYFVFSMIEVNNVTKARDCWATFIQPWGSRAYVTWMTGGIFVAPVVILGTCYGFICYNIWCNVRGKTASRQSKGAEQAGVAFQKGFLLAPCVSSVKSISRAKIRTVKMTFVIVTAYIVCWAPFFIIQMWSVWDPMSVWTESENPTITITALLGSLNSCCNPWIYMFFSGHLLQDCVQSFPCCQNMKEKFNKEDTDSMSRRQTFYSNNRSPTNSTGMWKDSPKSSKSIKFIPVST
Description: The physiological effects of vasopressin are mediated through specific G-protein coupled receptors. The vasopressin V1a receptor is coupled to the Gq/G11 family of G proteins and mediates phosphatidylinositol turnover. The agonist or antagonist character of the compounds of the invention may be determined by their ability to inhibit vasopressin-mediated turnover of phosphatidylinositol by the procedure described in the following paragraphs.
Cell culture and labeling of cells.
All assays were in triplicate except for basal and 10 nM AVP (both n=6). AVP ((arginine vasopressin), Peninsula Labs, Belmont, Calif., USA (#8103)) was dissolved in 0.1N acetic acid. Test agents were dissolved in DMSO and diluted in DMSO to 200 times the final test concentration. […] The order of incubations was randomized. Incubations were initiated by removing the prelabeling medium, washing the monolayer once with 1 mL of 0.9% NaCl, and transferring the contents of the assay tubes to corresponding wells. The plates were incubated for 1 hour at 37° C. Incubations were terminated by removing the incubation medium and adding 500 μL of ice cold 5% (w/v) trichloroacetic acid and allowing the wells to stand for 15 min.
BioRad Poly-Prep Econo-Columns were packed with 0.3 mL of AG 1 X-8 100-200 formate form resin. Resin was mixed 1:1 with water and 0.6 mL added to each column. Columns were then washed with 10 mL water. Scintillation vials (20 mL) were placed under each column. For each well, the contents were transferred to a minicolumn, after which the well was washed with 0.5 mL distilled water, which was also added to the minicolumn. The columns were then washed twice with 5 mL of 5 mM myo-inositol to elute free inositol. Aliquots (1 mL) were transferred to 20 mL scintillation vials and 10 mL of Beckman Ready Protein Plus added. After the myo-inositol wash was complete, empty scintillation vials were placed under the columns, and [^3H]inositol phosphates were eluted with three additions of 1 mL 0.5 M ammonium formate containing 0.1 N formic acid. Elution conditions were optimized to recover inositol mono-, bis-, and trisphosphates, without eluting the more metabolically inert tetrakis-, pentakis-, and hexakis-phosphates. To each sample was added 10 mL of a high salt capacity scintillation fluid such as Tru-Count High Salt Capacity or Packard Hionic-Fluor. Inositol lipids were measured by adding 1 mL of 2% sodium dodecyl sulfate (SDS) to each well, allowing the wells to stand for at least 30 min., and transferring the solution to 20 mL scintillation vials, to which 10 mL Beckman Ready Protein Plus scintillation fluid was then added. Samples were counted in a Beckman LS 3801 liquid scintillation counter for 10 min. Total inositol incorporation for each well was calculated as the sum of free inositol, inositol phosphates, and inositol lipids.
Concentration-response curves for AVP and concentration-inhibition curves for test agents versus 10 nM AVP were analyzed by nonlinear least-squares curve-fitting to a 4-parameter logistic function. Parameters for basal and maximal inositol phosphates, EC50 or IC50, and Hill coefficient were varied to achieve the best fit. The curve-fitting was weighted under the assumption that the standard deviation was proportional to dpm of radioactivity.

human V1a receptor [2] = target: T1, human V1a receptor; assay: Human vasopressin V1a receptor binding assay (3H-AVP competition, hV1a CHO cells); settings: for IC50: read-out: V1a Binding Affinity IC50
Outline: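 Whole CHO cells expressing hV1a were incubated with 1 nM 3H-AVP (as printed "InM") and 10-fold dilutions of compound in HEPES/BSA/DMEM buffer, pH 7.0, for 45 min at 37 °C. Non-specific binding was defined with 100 nM cold AVP. Bound radioactivity was SDS-solubilised and counted by scintillation; IC50 from curve fitting.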

awake rats = assay: Resident-intruder model of stress and aggression in rats, awake fMRI neuroimaging; assay type: in vivo, rat
Description: Resident-intruder model of stress and aggression in rats. Neuroimaging is used to assess the blockade of stress/arousal with test compound compared to control. The effect of AVN251-HCl on functional circuitry was examined using the imaging method for awake rats. Additional details of the assay are described in Ferris et al. Imaging the neural circuitry and chemical control of aggressive motivation.
Male rats in the company of a female cage mate piloerect in the presence of a male intruder. Piloerection is a sign of stress and aggressive intent and is associated with activation of stress/arousal circuits in the brain. Stress circuit activation in response to an intruder male is assessed by obtaining brain scans viewed from a caudal/dorsal perspective as translucent shells. The localization of activated voxels is mapped as 3D volumes of activation, which are composed of 10 subjects each. Once fully registered and segmented, the statistical responses for each subject are averaged on a voxel-by-voxel basis. Those averaged voxels exceeding a 2.0% threshold are shown in their appropriate spatial location. Functional images are acquired on awake rats at 4.7 T.
Resident male rats from six male/female pairs are imaged while fully awake, and presented with their mate, or their mate+an intruder, a highly stressful stimulus. […] The total volume of brain activation for resident males confronted with their mate alone, mate plus intruder, and mate plus intruder in the presence of AVN251-HCl are viewed as 3D models.
Awake rats are imaged when presented with their mate, or their mate+an intruder. […] In each scan, the dark shaded areas represent activation of vasopressin receptor signaling.

C57Bl/6J males = assay: Social interaction test after chronic social subjugation; assay type: in vivo, mice
Description: Anti-depressant Effect in the Social Interaction Test. […] A rapid subjugation paradigm in mice lead to diminished social interaction behavior, where the dependent measures are distance traveled and time in the Interaction Zone. A 28-day treatment regimen with chlordiazepoxide (CDP), a standard anxiolytic, had no effect on deficits produced by chronic subordination. Additional details are described in Berton et al. Essential role of BDNF in the mesolimbic dopamine pathway in social defeat stress. Science 311(5762):864-8 (Feb. 10, 2006).
Briefly, C57Bl/6J males are defeated daily for 10 days by resident, highly aggressive CF-1 males. After 5 minutes of direct exposure, a perforated plastic partition is inserted into the cage that allowed olfactory and visual contact without physical defeat for the remaining 23 hr 55 min each day. The C57 males are exposed to a different resident male in a different cage each day to increase the stress of the procedure (it is observed that all CF-1 males attacked the intruder each day). At the end of the 10 day defeat procedure, the C57 males are tested in an open field apparatus during the dark phase. A dominant male is caged in an area of the open field apparatus termed the “social interaction zone.” Time and distance traveled in the zone are recorded. The C57 males are then divided randomly among the following treatments: AVN246-HCl (2 mg/kg), saline vehicle (0.45%), or chlordiazepoxide (10 mg/kg). Treatments are given daily (i.p.) for 28 days and the animals are retested. Behavioral changes are determined by calculating difference scores (Post-Pretest) and these scores are analyzed.

[3] = test system: Adult male Long Evans rats; assay: Light/dark shuttle box; assay type: in vivo, rat
Procedure: Anxiolytic Effect in the Light/Dark Shuttle Box. The light/dark shuttle box is a standard and well characterized assay for anxiolytic effects of a test compound. Rats naturally avoid the light side of the box because it is stressful. Increased time on the light side by the treatment group compared to control reflects an anxiolytic effect (Bourin and Hascoet, 2003). Adult male Long Evans rats are administered AVN251 (0.1-2 mg/kg) by oral gavage 90 min prior to testing in a light/dark shuttle box.

[4] = 3H-AVP competition, CHO cells expressing human V1a
[5] = 3H-AVP competition, CHO cells expressing human V1a, read-out: V1a Ki
[6] = difference score (Post-Pretest), daily i.p. for 28 days

SMILES	agonist or antagonist character (human V1a receptor [1])	IC50 (human V1a receptor [2]; [4])	Ki (human V1a receptor [2]; [5])	further results
O=C(NCc1cccc(C(F)(F)F)c1)C(CC(=O)N1CCC(N2CCCCC2)CC1)N1C(=O)C(N2C(=O)OCC2c2ccccc2)C1C=Cc1ccccc1 (centres unmarked) [Example 44]	vasopressin V1a antagonists	3.1 nM	1.89 nM	–
O=C(NCc1cccc(C(F)(F)F)c1)[C@H](CCC(=O)N1CCN(CCc2ccccc2)CC1)N1C(=O)[C@@H](N2C(=O)OC[C@@H]2c2ccccc2)[C@H]1C=Cc1ccccc1 (single isomer, unassigned) [Example 35]	vasopressin V1a antagonists	–	–	–
CNCCC(Oc1ccc(C(F)(F)F)cc1)c1ccccc1 (centres unmarked) [fluoxetine, reference compound]	–	–	–	sexual motivation / mesocorticolimbic dopamine reward system activation (awake rats; presentation of novel receptive female): markedly diminishes activation of this circuit; stress circuit activation (BOLD), mate plus intruder (awake rats; resident male rats, 5 mg/kg oral gavage): decreased activation of both the stress circuits and the mesocorticolimbic dopamine reward system
O=C(NCc1cccc(C(F)(F)F)c1)C(CCC(=O)N1CCC(N2CCCCC2)CC1)N1C(=O)C(N2C(=O)OCC2c2ccccc2)C1C=Cc1ccccc1 (single isomer, unassigned) [Example 88]	vasopressin V1a antagonists	2.4 nM	1.45 nM	–
CNC1=Nc2ccc(Cl)cc2C(c2ccccc2)=[N+]([O-])C1 [CDP, chlordiazepoxide]	–	–	–	effect on social interaction deficits after chronic subordination (C57Bl/6J males; 28-day treatment): no effect; Distance (traveled in the interaction zone) (C57Bl/6J males; [6]): 1.0 ± 5; Time (in the interaction zone) (C57Bl/6J males; [6]): 0.0 ± 5
O=C(NCc1cccc(C(F)(F)F)c1)C(CCC(=O)N1CCN(C2CCCCC2)CC1)N1C(=O)C(N2C(=O)OCC2c2ccccc2)C1C=Cc1ccccc1 (single isomer, unassigned) [Example 110]	vasopressin V1a antagonists	–	–	–
CN(Cc1cccc(C(F)(F)F)c1)C(=O)[C@@H](CC(=O)N1CCC(N2CCCCC2)CC1)N1C(=O)[C@@H](N2C(=O)OC[C@@H]2c2ccccc2)[C@H]1/C=C/c1ccccc1 [Example 225, 2(R)-[[4-(Piperidinyl)piperidinyl]carbonylmethyl]-2-[3(S)-(4(S)-phenyloxazolidin-2-on-3-yl)-4(R)-(2-styryl)azetidin-2-on-1-yl]acetic acid N-methyl-N-(3-trifluoromethylbenzyl)amide]	–	–	0.66 nM	anxiety compared to vehicle ([3]; 0.1-2 mg/kg oral gavage 90 min prior to testing): dose dependent decrease in anxiety; light-dark entries (FIG. 6C) ([3]; 1 or 2 mg/kg): more light-dark entries; time in the dark (FIG. 6B) ([3]; 1 or 2 mg/kg, p<0.01): less time in the dark; time in the light (FIG. 6A) ([3]; 1 or 2 mg/kg, p<0.01): more time in the light; activation of vasopressin receptor signaling in brain scans (FIG. 4 vs FIG. 3) (awake rats; amygdala, cortex, hippocampus, thalamus, mate+intruder): lower activation of vasopressin receptor signaling than the untreated controls; stress/arousal response in amygdala, cortex, hippocampus and thalamus (awake rats; pretreatment 5 mg/kg 90 minutes before test session, mate + intruder, listed as AVN251): blocked the stress/arousal response; Ki (human V1a receptor [2]; receptor selectivity table, read-out: inhibition data Ki, V1a): 0.66 nM
O=C(NCc1cccc(C(F)(F)F)c1)C(CC(=O)N1CCC(N2CCCCC2)CC1)N1C(=O)C(N2C(=O)OCC2c2ccccc2)C1C=Cc1ccccc1 (centres unmarked) [Example 133]	vasopressin V1a antagonists	2.43 nM	1.49 nM	–
CC(NC(=O)C(CC(=O)N1CCC(N2CCCCC2)CC1)N1C(=O)C(N2C(=O)OCC2c2ccccc2)C1C=Cc1cccc(Cl)c1)c1ccccc1 (centres unmarked) [Example 559]	–	0.12 nM	0.073 nM	–
